Data from paper PMC13086964, “USP7 deubiquitinase stabilizes FAN1 to support DNA crosslink repair and suppress CAG repeat expansion” (Nature Communications, 2026).

How the values were obtained:
Format in all cases: cell-based, human
[1] = test system: HeLa parental and FAN1 KO cells; test: apoptosis: PARP-1 and caspase-3 cleavage, HeLa; details: 48 h
Method: (§1) Fig. 4 USP7 facilitates FAN1 localization and function during ICL repair. A QIBC analysis of chromatin-bound GFP-FAN1 foci in U2OS^eGFP-FAN1 cells transfected with either non-targeting (Ctrl), USP7 or FANCD2 siRNA oligos. 24 h later, cells were either mock-treated (–) or treated (+) with MMC (150 ng/ml) for 24 h. Color-coded scatterplots (from grey to green) indicate the number of GFP-FAN1 foci per nucleus from one biological replicate. Mean (solid line) and standard deviation (SD) from the mean (dashed lines) are indicated. Representative images are shown (bottom). Scale bar: 10 μm. This experiment was repeated three times. B QIBC analysis of endogenous FANCD2 foci in U2OS^eGFP-FAN1 cells transfected with either non-targeting (Ctrl) or the indicated siRNA oligos. 24 h later, cells were either mock-treated (−) or treated (+) with MMC (150 ng/ml) for 24 h. Color-coded scatterplots (from grey to blue) indicate the number of FANCD2 foci per nucleus from one biological replicate. Mean (solid line) and standard deviation (SD) from the mean (dashed lines) are indicated. […] 24 h later, cells were either mock-treated (−) or treated (+) with MMC (1 μg/ml) for 48 h and whole-cell lysates were analysed by immunoblotting. […] Relative FAN1, cleaved PARP-1 or cleaved Caspase-3 protein levels were determined by quantification of the respective band intensity (normalized to GAPDH) with the ImageJ software. […]

FAN1 protein level = test: immunoblot of FAN1 levels after MMC, HeLa; details: MMC 1 μg/ml, 48 h
Method: as §1

RPE-1 p53 KO cells = test: clonogenic survival assay, RPE-1 p53 KO; details: 24 h, n = 3
Method: as §1, with “h.” for “h. Color-coded scatterplots (from grey to blue) indicate the number of FANCD2 foci per nucleus from one biological replicate. Mean (solid line) and standard deviation (SD) from the mean (dashed lines) are indicated.”
HeLa and RPE-1 p53 KO cells were transfected with the indicated siRNA. […] For analysis, plates were scanned and analysed with the ImageJ Plugin ColonyArea using the parameter “intensity percent”.

USP7 foci in U2OS cells = test: QIBC of endogenous USP7 foci; details: MMC 150 ng/ml, 24 h
Method: Automated multichannel wide-field microscopy for QIBC was performed using the Olympus ScanR System as described previously. Images of cell populations were acquired under non-saturating conditions with Olympus ScanR Image Acquisition software 3.2 and 3.3.0, typically 16 (4×4) images per coverslip, and identical settings were applied to all samples of the same experiment. Images were analysed with the inbuilt Olympus ScanR Image Analysis Software Version 3.2 and 3.3.0, a dynamic background correction was applied, and nuclei segmentation was performed using an integrated intensity-based object detection module based on the DAPI signal. All downstream analyses were focused on properly detected nuclei containing a 2C-4C DNA content as measured by total and mean DAPI intensities. Fluorescence intensities were quantified and are depicted as arbitrary units. Color-coded scatterplots of asynchronous cell populations were generated with Spotfire data visualization software (TIBCO Spotfire 10.10.1.7). Within one experiment, similar cell numbers were compared for the different conditions. For visualizing discrete data in scatterplots, mild jittering (random displacement of data points along discrete data axes) was applied to demerge overlapping data points. Representative scatterplots and quantifications of independent experiments, typically containing several thousand cells each, are shown. […]

CO[C@@]12[C@H](COC(N)=O)C3=C(C(=O)C(C)=C(N)C3=O)N1C[C@@H]1N[C@@H]12 [MMC, Mitomycin C]
apoptosis (cleavage of PARP-1 and caspase-3) ([1]; HeLa FAN1 KO cells depleted of USP7, MMC 1 µg/ml): further amplified
apoptosis (cleavage of PARP-1 and caspase-3) ([1]; HeLa, USP7 depletion or FAN1 loss, MMC 1 µg/ml): increased apoptosis
FAN1 levels in response to MMC (FAN1 protein level): upregulated
MMC-induced FAN1 upregulation with USP7 depletion (FAN1 protein level; USP7 siRNA): abrogated by USP7 depletion
MMC sensitivity, FAN1/USP7 co-depletion (RPE-1 p53 KO cells): did not enhance sensitivity beyond individual knock-down of FAN1
MMC sensitivity, FANCD2-depleted (RPE-1 p53 KO cells): strongest MMC sensitivity
USP7 nuclear foci (USP7 foci in U2OS cells): increased modestly in numbers
